Measurements reported in PubChem BioAssay AID248 (DTP/NCI, 2004).
Inconclusive results and toxic doses are left out. No stated cut-off is given here; in the data, active means T/C of 150% or more; inactive means T/C below 125%. Square brackets hold non-standard residues; d marks the D form. Peptide text beside a SMILES is read from it. * marks the point of attachment. ξ: configuration not given here. Cbz = O=C(OCc1ccccc1)*; ξL = CC(C)CC(N)C(=O)O; OBn = c1ccc(CO*)cc1

System: L1210 leukemia ip in BDF1 mice, survival T/C
Test: NCI In Vivo Anticancer Drug Screen. Data for tumor model L1210 Leukemia (intraperitoneal) in B6D2F1 (BDF1) mice
Settings: endpoint: mean survival time, higher = longer survival
In short: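 Transplanted-tumor mice were given test agent; controls received vehicle only. Survival readings from the two groups were divided (treated over control).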

[1] = dose: 100.0 mg/kg/injection, schedule: Q01DX001 (ip), vehicle: Klucel (hydroxypropylcellulose) (HPC)
[2] = dose: 100.0 mg/kg/injection, schedule: Q04DX003 (ip), vehicle: saline
[3] = dose: 200.0 mg/kg/injection, schedule: Q01DX001 (ip), vehicle: Klucel (hydroxypropylcellulose) (HPC)
[4] = dose: 200.0 mg/kg/injection, schedule: Q04DX003 (ip), vehicle: saline
[5] = dose: 400.0 mg/kg/injection, schedule: Q01DX001 (ip), vehicle: Klucel (hydroxypropylcellulose) (HPC)
[6] = dose: 400.0 mg/kg/injection, schedule: Q04DX003 (ip), vehicle: saline
[7] = dose: 100.0 mg/kg/injection, schedule: Q01DX009 (ip), vehicle: saline
[8] = dose: 100.0 mg/kg/injection, schedule: Q04DX003 (ip), vehicle: Klucel (hydroxypropylcellulose) (HPC)
[9] = dose: 200.0 mg/kg/injection, schedule: Q04DX003 (ip), vehicle: Klucel (hydroxypropylcellulose) (HPC)
[10] = dose: 200.0 mg/kg/injection, schedule: Q01DX009 (ip), vehicle: saline
[11] = dose: 400.0 mg/kg/injection, schedule: Q01DX009 (ip), vehicle: saline
[12] = dose: 100.0 mg/kg/injection, schedule: Q01DX001 (ip), vehicle: saline
[13] = dose: 200.0 mg/kg/injection, schedule: Q01DX001 (ip), vehicle: saline
[14] = dose: 400.0 mg/kg/injection, schedule: Q01DX001 (ip), vehicle: saline

Measured: T/C

CC(C)Cc1c(N)nc(=S)[nH]c1C(=O)O
inactive: [1] 100 % of control | [2] 100 % of control | [3] 100 % of control | [4] 94 % of control | [5] 109 % of control | [6] 94 % of control

CC1(C)N=C(N)N=C(N)N1c1cccc(CCC(=O)Nc2ccc(S(=O)(=O)F)cc2)c1
inactive: dose: 0.8 mg/kg/injection, schedule: Q01DX009 (ip), vehicle: saline 103 % of control | dose: 4.0 mg/kg/injection, schedule: Q01DX009 (ip), vehicle: saline 101 % of control | dose: 20.0 mg/kg/injection, schedule: Q01DX009 (ip), vehicle: saline 103 % of control | [7] 112 % of control

O=NN1CC2CCC1CC2
inactive: dose: 2.5 mg/kg/injection, schedule: Q01DX009 (ip), vehicle: saline 109 % of control | dose: 5.0 mg/kg/injection, schedule: Q01DX009 (ip), vehicle: saline 109 % of control | dose: 10.0 mg/kg/injection, schedule: Q01DX009 (ip), vehicle: saline 102 % of control

CCOC(=S)c1ccc(S(=O)(=O)NC)cc1
inactive: [1] 109 % of control | [3] 100 % of control | [5] 110 % of control

Cc1nc(-c2ccc(N=Cc3ccc(N(CCOS(C)(=O)=O)CCOS(C)(=O)=O)cc3)cc2)cs1
inactive: dose: 2.5 mg/kg/injection, schedule: Q04DX003 (ip), vehicle: Klucel (hydroxypropylcellulose) (HPC) 106 % of control | dose: 5.0 mg/kg/injection, schedule: Q04DX003 (ip), vehicle: Klucel (hydroxypropylcellulose) (HPC) 113 % of control | dose: 10.0 mg/kg/injection, schedule: Q04DX003 (ip), vehicle: Klucel (hydroxypropylcellulose) (HPC) 120 % of control | [8] 118 % of control | [9] 88 % of control

CC(C)(C)C(/C=N/N=C(N)N)=N\N=C(N)N
inactive: dose: 15.0 mg/kg/injection, schedule: Q01DX Z (ip), vehicle: methylcellulose (MC) 105 % of control | dose: 30.0 mg/kg/injection, schedule: Q01DX Z (ip), vehicle: methylcellulose (MC) 91 % of control | dose: 60.0 mg/kg/injection, schedule: Q01DX Z (ip), vehicle: methylcellulose (MC) 94 % of control | dose: 120.0 mg/kg/injection, schedule: Q01DX Z (ip), vehicle: methylcellulose (MC) 91 % of control | dose: 600.0 mg/kg/injection, schedule: Q01DX Z (oral), vehicle: methylcellulose (MC) 110 % of control | dose: 720.0 mg/kg/injection, schedule: Q01DX Z (oral), vehicle: methylcellulose (MC) 98 % of control

O=C(O)C1C2C=CC(CC2)C1C(=O)O (centres undefined)
inactive: [2] 96 % of control | [4] 90 % of control | [6] 94 % of control

O=S(=O)(O)CCc1ccccn1
inactive: dose: 50.0 mg/kg/injection, schedule: Q01DX009 (ip), vehicle: saline 106 % of control | [7] 109 % of control | [10] 92 % of control

CSc1cc2c(cc1NC(C)=O)C(=O)c1ccccc1-2
inactive: dose: 100.0 mg/kg/injection, schedule: Q01DX001 (ip), vehicle: carboxymethylcellulose (CMC) 90 % of control | dose: 200.0 mg/kg/injection, schedule: Q01DX001 (ip), vehicle: carboxymethylcellulose (CMC) 106 % of control | dose: 400.0 mg/kg/injection, schedule: Q01DX001 (ip), vehicle: carboxymethylcellulose (CMC) 109 % of control

O=C(NCCCCCCCCNC(=O)N1CC1)N1CC1
inactive: dose: 0.19 mg/kg/injection, schedule: Q01DX009 (ip), vehicle: carboxymethylcellulose (CMC) 101 % of control | dose: 0.29 mg/kg/injection, schedule: Q01DX001 (ip), vehicle: carboxymethylcellulose (CMC) 98 % of control | dose: 0.29 mg/kg/injection, schedule: Q01DX009 (ip), vehicle: carboxymethylcellulose (CMC) 113 % of control | dose: 0.44 mg/kg/injection, schedule: Q01DX001 (ip), vehicle: carboxymethylcellulose (CMC) 95 % of control | dose: 0.44 mg/kg/injection, schedule: Q01DX009 (ip), vehicle: carboxymethylcellulose (CMC) 111 % of control | dose: 0.66 mg/kg/injection, schedule: Q01DX001 (ip), vehicle: carboxymethylcellulose (CMC) 96 % of control | dose: 0.66 mg/kg/injection, schedule: Q01DX009 (ip), vehicle: carboxymethylcellulose (CMC) 108 % of control | dose: 1.0 mg/kg/injection, schedule: Q01DX001 (ip), vehicle: carboxymethylcellulose (CMC) 101 % of control | dose: 1.0 mg/kg/injection, schedule: Q01DX009 (ip), vehicle: carboxymethylcellulose (CMC) 119 % of control | dose: 1.5 mg/kg/injection, schedule: Q01DX009 (ip), vehicle: carboxymethylcellulose (CMC) 109 % of control | dose: 2.25 mg/kg/injection, schedule: Q01DX009 (ip), vehicle: carboxymethylcellulose (CMC) 112 % of control | dose: 6.2 mg/kg/injection, schedule: Q01DX001 (ip), vehicle: carboxymethylcellulose (CMC) 102 % of control

COC(=O)OCCOC(=O)OC
inactive: [7] 105 % of control | [2] 100 % of control | [10] 101 % of control | [4] 102 % of control | [11] 100 % of control | [6] 103 % of control

O=C(O)c1ccc(N2C(=O)C=CC2=O)cc1 (tested in a mixture with another compound)
inactive: dose: 12.5 mg/kg/injection, schedule: Q01DX009 (ip), vehicle: acetone 90 % of control

OC1CCCCC1Br (centres undefined)
inactive: dose: 50.0 mg/kg/injection, schedule: Q01DX001 (ip), vehicle: saline 96 % of control | [12] 98 % of control | [13] 113 % of control | [14] 102 % of control

NC(=O)C(N)=O
inactive: [7] 93 % of control | [2] 106 % of control | [10] 103 % of control | [4] 101 % of control | [11] 101 % of control | [6] 97 % of control

O=C(O)c1sc(C(=O)O)c(O)c1O
inactive: dose: 12.5 mg/kg/injection, schedule: Q01DX001 (ip), vehicle: saline with Tween-80 111 % of control | dose: 25.0 mg/kg/injection, schedule: Q01DX001 (ip), vehicle: saline with Tween-80 103 % of control | dose: 50.0 mg/kg/injection, schedule: Q01DX001 (ip), vehicle: saline with Tween-80 100 % of control

C[Si](C)(C)n1ccnc1
inactive: [2] 100 % of control | [4] 105 % of control | [6] 94 % of control

NC(=O)N(CCO)CCO
inactive: [2] 110 % of control | [4] 96 % of control | [6] 104 % of control

CN(C)/N=C/c1ccc(-c2ccccc2)cc1
inactive: dose: 100.0 mg/kg/injection, schedule: Q01DX009 (ip), vehicle: saline with Tween-80 95 % of control | dose: 200.0 mg/kg/injection, schedule: Q01DX009 (ip), vehicle: saline with Tween-80 111 % of control | dose: 400.0 mg/kg/injection, schedule: Q01DX009 (ip), vehicle: saline with Tween-80 102 % of control

CC(=O)OCOC1C(COC(C)=O)OCOC(COC(C)=O)C1OCOC(C)=O (centres undefined)
inactive: [1] 103 % of control | [3] 103 % of control | [5] 110 % of control

O=[N+]([O-])c1ccc([N+](=O)[O-])c(Cl)c1
inactive: dose: 50.0 mg/kg/injection, schedule: Q01DX009 (ip), vehicle: Klucel (hydroxypropylcellulose) (HPC) 101 % of control | dose: 100.0 mg/kg/injection, schedule: Q01DX009 (ip), vehicle: Klucel (hydroxypropylcellulose) (HPC) 95 % of control | dose: 100.0 mg/kg/injection, schedule: Q04DX003 (ip), vehicle: saline with Tween-80 97 % of control | dose: 200.0 mg/kg/injection, schedule: Q04DX003 (ip), vehicle: saline with Tween-80 86 % of control

O=NN(CCCl)C(=O)Nc1ccc(S(=O)(=O)F)cc1
inactive: dose: 500.0 mg/kg/injection, schedule: Q01DX001 (ip), vehicle: carboxymethylcellulose (CMC) 110 % of control

COC1OC2COCOC2C2OCOC12 (centres undefined)
inactive: dose: 50.0 mg/kg/injection, schedule: Q04DX002 (ip), vehicle: Klucel (hydroxypropylcellulose) (HPC) 95 % of control | dose: 100.0 mg/kg/injection, schedule: Q04DX002 (ip), vehicle: Klucel (hydroxypropylcellulose) (HPC) 98 % of control | dose: 200.0 mg/kg/injection, schedule: Q04DX002 (ip), vehicle: Klucel (hydroxypropylcellulose) (HPC) 98 % of control

CC(C)CC(NC(=O)CNC(=O)CNC(=O)OCc1ccccc1)C(=O)OCc1ccccc1 (stereo not drawn) (Cbz-Gly-Gly-[ξL]-OBn)
inactive: [8] 94 % of control | [9] 96 % of control | dose: 400.0 mg/kg/injection, schedule: Q04DX003 (ip), vehicle: Klucel (hydroxypropylcellulose) (HPC) 100 % of control

CCOC(=O)CNNC(=O)C(O)C(O)C(O)C(O)CO (centres undefined)
inactive: [12] 87 % of control | [13] 100 % of control | [14] 100 % of control
